Key:
Test in all cases: relative viability (nuclei count vs DMSO), 5 days (fraction); higher = more cells survive
NCI-H2405 = test system: NCI-H2405
Summary of the method: (§1)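 Cells from lung cancer lines were seeded into 1536-well plates and, one day later, dosed by pin tool. Treatments were either a single drug or a fixed dose of an anchor drug with five library-drug doses (not always all listed) in √10 steps. After 5 days, nuclei were stained in a one-step fixation (final 0.05% Triton X-100, 1% formaldehyde, 1 ug/ml Hoechst) and counted on 4× images, and relative viability is the treated-to-vehicle nuclei ratio, as the median of duplicate plates.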

A-427 = test system: A-427
Summary of the method: as §1

NCI-H2023 = test system: NCI-H2023
Summary of the method: as §1

EMC-BAC-2 = test system: EMC-BAC-2
Summary of the method: as §1

HCC-78 = test system: HCC-78
Summary of the method: as §1

NCI-H1993 = test system: NCI-H1993
Summary of the method: as §1

NCI-H838 = test system: NCI-H838
Summary of the method: as §1

COR-L23 = test system: COR-L23
Summary of the method: as §1

HCC-15 = test system: HCC-15
Summary of the method: as §1

NCI-H23 = test system: NCI-H23
Summary of the method: as §1

LC-2-ad = test system: LC-2-ad
Summary of the method: as §1

ChaGo-K-1 = test system: ChaGo-K-1
Summary of the method: as §1

SK-LU-1 = test system: SK-LU-1
Summary of the method: as §1

HCC-366 = test system: HCC-366
Summary of the method: as §1

HARA = test system: HARA
Summary of the method: as §1

NCI-H2009 = test system: NCI-H2009
Summary of the method: as §1

NCI-H1944 = test system: NCI-H1944
Summary of the method: as §1

NCI-H1734 = test system: NCI-H1734
Summary of the method: as §1

ABC-1 = test system: ABC-1
Summary of the method: as §1

UMC-11 = test system: UMC-11
Summary of the method: as §1

NCI-H1793 = test system: NCI-H1793
Summary of the method: as §1

NCI-H2126 = test system: NCI-H2126
Summary of the method: as §1

## O=C(O)c1ccc(-c2c[nH]c3ncc(-c4ccccc4)cc23)cc1C1CCCC1 + Nc1ncn([C@H]2C[C@H](O)[C@@H](CO)O2)c(=O)n1 [Decitabine] (partner 2 µM)
NCI-H2405; first compound 0.04 µM
  relative viability: 0.71
NCI-H2405; first compound 0.1265 µM
  relative viability: 0.762
NCI-H2405; first compound 0.4 µM
  relative viability: 0.676
NCI-H2405; first compound 1.265 µM
  relative viability: 0.515
A-427; first compound 0.04 µM
  relative viability: 0.59
A-427; first compound 0.1265 µM
  relative viability: 0.594
A-427; first compound 0.4 µM
  relative viability: 0.5
A-427; first compound 1.265 µM
  relative viability: 0.475
NCI-H2023; first compound 0.04 µM
  relative viability: 0.191
NCI-H2023; first compound 0.1265 µM
  relative viability: 0.243
NCI-H2023; first compound 0.4 µM
  relative viability: 0.216
NCI-H2023; first compound 1.265 µM
  relative viability: 0.17
EMC-BAC-2; first compound 0.04 µM
  relative viability: 0.948
EMC-BAC-2; first compound 0.1265 µM
  relative viability: 1.06
EMC-BAC-2; first compound 0.4 µM
  relative viability: 1.01
EMC-BAC-2; first compound 1.265 µM
  relative viability: 0.909
HCC-78; first compound 0.1265 µM
  relative viability: 0.862
HCC-78; first compound 0.4 µM
  relative viability: 0.859
HCC-78; first compound 1.265 µM
  relative viability: 0.622
NCI-H1993; first compound 0.04 µM
  relative viability: 0.552
NCI-H1993; first compound 0.1265 µM
  relative viability: 0.547
NCI-H1993; first compound 0.4 µM
  relative viability: 0.613
NCI-H1993; first compound 1.265 µM
  relative viability: 0.644
NCI-H838; first compound 0.04 µM
  relative viability: 0.45
NCI-H838; first compound 0.1265 µM
  relative viability: 0.475
NCI-H838; first compound 0.4 µM
  relative viability: 0.416
NCI-H838; first compound 1.265 µM
  relative viability: 0.357
COR-L23; first compound 0.04 µM
  relative viability: 0.446
COR-L23; first compound 0.1265 µM
  relative viability: 0.414
COR-L23; first compound 0.4 µM
  relative viability: 0.365
COR-L23; first compound 1.265 µM
  relative viability: 0.327
HCC-15; first compound 0.04 µM
  relative viability: 0.641
HCC-15; first compound 0.1265 µM
  relative viability: 0.673
HCC-15; first compound 0.4 µM
  relative viability: 0.608
HCC-15; first compound 1.265 µM
  relative viability: 0.381
NCI-H23; first compound 0.04 µM
  relative viability: 0.329
NCI-H23; first compound 0.1265 µM
  relative viability: 0.256
NCI-H23; first compound 0.4 µM
  relative viability: 0.29
NCI-H23; first compound 1.265 µM
  relative viability: 0.251
LC-2-ad; first compound 0.04 µM
  relative viability: 0.718
LC-2-ad; first compound 0.1265 µM
  relative viability: 0.756
LC-2-ad; first compound 0.4 µM
  relative viability: 0.737
LC-2-ad; first compound 1.265 µM
  relative viability: 0.651
ChaGo-K-1; first compound 0.04 µM
  relative viability: 0.515
ChaGo-K-1; first compound 0.1265 µM
  relative viability: 0.501
ChaGo-K-1; first compound 0.4 µM
  relative viability: 0.484
ChaGo-K-1; first compound 1.265 µM
  relative viability: 0.478
SK-LU-1; first compound 0.04 µM
  relative viability: 0.633
SK-LU-1; first compound 0.1265 µM
  relative viability: 0.587
SK-LU-1; first compound 0.4 µM
  relative viability: 0.592
SK-LU-1; first compound 1.265 µM
  relative viability: 0.508
HCC-366; first compound 0.04 µM
  relative viability: 0.336
HCC-366; first compound 0.1265 µM
  relative viability: 0.342
HCC-366; first compound 0.4 µM
  relative viability: 0.363
HCC-366; first compound 1.265 µM
  relative viability: 0.3
HARA; first compound 0.04 µM
  relative viability: 0.372
HARA; first compound 0.1265 µM
  relative viability: 0.643
HARA; first compound 0.4 µM
  relative viability: 0.477
HARA; first compound 1.265 µM
  relative viability: 0.354
NCI-H2009; first compound 0.04 µM
  relative viability: 0.411
NCI-H2009; first compound 0.1265 µM
  relative viability: 0.415
NCI-H2009; first compound 0.4 µM
  relative viability: 0.398
NCI-H2009; first compound 1.265 µM
  relative viability: 0.347
NCI-H1944; first compound 0.04 µM
  relative viability: 0.448
NCI-H1944; first compound 0.1265 µM
  relative viability: 0.437
NCI-H1944; first compound 0.4 µM
  relative viability: 0.423
NCI-H1944; first compound 1.265 µM
  relative viability: 0.402
NCI-H1734; first compound 0.04 µM
  relative viability: 0.528
NCI-H1734; first compound 0.1265 µM
  relative viability: 0.499
NCI-H1734; first compound 0.4 µM
  relative viability: 0.461
NCI-H1734; first compound 1.265 µM
  relative viability: 0.437
ABC-1; first compound 0.04 µM
  relative viability: 1.1
ABC-1; first compound 0.1265 µM
  relative viability: 1.1
ABC-1; first compound 0.4 µM
  relative viability: 0.891
ABC-1; first compound 1.265 µM
  relative viability: 0.931
UMC-11; first compound 0.04 µM
  relative viability: 0.653
UMC-11; first compound 0.1265 µM
  relative viability: 0.565
UMC-11; first compound 0.4 µM
  relative viability: 0.497
UMC-11; first compound 1.265 µM
  relative viability: 0.626
NCI-H1793; first compound 0.04 µM
  relative viability: 0.434
NCI-H1793; first compound 0.1265 µM
  relative viability: 0.527
NCI-H1793; first compound 0.4 µM
  relative viability: 0.519
NCI-H1793; first compound 1.265 µM
  relative viability: 0.334
NCI-H2126; first compound 0.04 µM
  relative viability: 0.585
NCI-H2126; first compound 0.1265 µM
  relative viability: 0.621
NCI-H2126; first compound 0.4 µM
  relative viability: 0.466
NCI-H2126; first compound 1.265 µM
  relative viability: 0.569
